Source: patent US8778985B2, “Inhibiting amyloid-beta peptide/rage interaction at the blood-brain barrier” (The University of Rochester, priority 2006, dated 2014)

Assays:
[1] = tested on: RAGE-transfected CHO cells; assay: NF-κB activation (translocation) in RAGE-transfected CHO cells; format: cell-based; details: 1 μM Aβ40; FPS2 at 50 nM or 500 nM
[2] = tested on: RAGE-mediated transport of Aβ40 across the BBB; assay: Arterial vascular brain perfusion: transport of 125I-Aβ40 across the BBB in APPsw+/− mice; format: in vivo; details: Mus musculus, read-out: inhibition of Aβ transport across the BBB
Source text: The statistical significance of differences is shown. Data are mean±s.e.m., n=3-4 per group.
An arterial vascular brain perfusion technique (LaRue et al., 2004) was used to determine whether FPS2 blocks RAGE-mediated transport of circulating ^125I-labeled Aβ40 across the BBB in 4-6 month old APPsw^+/− mice. We and others have reported that expression of RAGE in brain microvessels in these mice is increased by about 5-fold compared to the littermate controls (Deane et al., 2003; Donahue et al., 2004).

[3] = tested on: APPsw+/− mice; assay: Human Aβ40 and Aβ42 levels in hippocampus and cortex by ELISA, chronic treatment of APPsw+/− mice; format: in vivo; details: 1 mg/kg per day i.p. for two months
Description: A-B, Aβ40 and Aβ42 levels in hippocampus (A) cortex (B) of APPsw^+/− mice treated with vehicle (filled square) or FPS2 (filled triangle). FPS2 (1 mg/kg per day) was administered intraperitoneally to mice for two months beginning at the age of 8 months. Values are means±s.e.m, n=5-6 per group.
In the chronic-treated mice, Aβ40 and Aβ42 levels in the hippocampus were reduced by about 85% and 90%, respectively, in the FPS2-treated mice compared to vehicle (FIG. 6A). Similarly, Aβ40 and Aβ42 levels in the cortex were reduced by about 70% and 80%, respectively (FIG. 6B).
Compounds were synthesized in parallel using semiautomated chemical reactions. Five commercially-available aromatic aldehydes were condensed in reductive amination reactions with five hydrophobic amines to form 25 secondary amines. Parallel acylation of these 25 secondary amines with five aromatic acyl chlorides provided the final 125-compound library of tertiary amides. The identity of compounds was verified by mass spectrometry (FIG. 9). Purity was assessed by reverse-phase gradient HPLC. Library members isolated with purity <95% were subjected to preparative HPLC purification prior to assay. • Animals. APPsw^+/− (Tg2576) mice were from Taconic Farms (Germantown, N.Y.). Mice were housed under standard conditions (12 hour light/dark cycle starting at 07:00 AM; 21±2° C.; 55±10% humidity) in solid-bottom cages on woodchip bedding. Mice were anesthetized by intraperitoneal injection with urethane (750 mg/kg) and α-chloralose (50 mg/kg). All procedures on mice were performed according to the NIH guidelines, which were approved by the University of Rochester's Committee on Animal Resources. • FPS2 chronic treatment of APPsw^+/− mice. APPsw^+/− mice (n=5-6 per group) were treated intraperitoneally with FPS2 (1 mg/kg per day) or saline for two months beginning at the age of 8 months. After two months of treatment, (i) the cerebral blood flow response to brain activation (whisker stimulation) was measured and (ii) behavioral tests including operant learning, novel object location (NOL), and novel object recognition (NOR) were performed. After these functional tests, the mice were sacrificed and their brains analyzed for Aβ40, Aβ42, and amyloid levels. • CBF response to brain activation. The CBF response to vibrissal stimulation in anesthetized APPsw^+/− mice was measured by using laser-doppler flowmetry (Transonic Systems, BLF 21 D). The tip of the laser-doppler probe was stereotaxically placed 0.5 mm above the dura of the cranial window. The right vibrissae were cut to about 5 mm and stimulated by gentle stroking at 3-4 Hz, for 1 min with a cotton-tip applicator. […] The time exploring the novel and familiar objects was scored by hand to provide discrimination. • Human Aβ40 and Aβ42. […]

## CC(CC(=O)NCCCN(C(=O)c1cc([N+](=O)[O-])cc([N+](=O)[O-])c1)c1ccccc1)CC(C)(C)C (stereo not drawn) [FPS2, 3,5-dinitro-N-phenyl-N-[3-[(3,5,5-trimethyl-1-oxohexyl)amino]propyl]-(9Cl)-benzamide]
[1]
  NF-κB activation: inhibited
[2]
  inhibition at 4.8 µg/mL: 100%
[3]
  reduction of Aβ40 level in the cortex compared to vehicle: about 70%
  reduction of Aβ40 level in the hippocampus compared to vehicle: about 85%
  reduction of Aβ42 level in the cortex compared to vehicle: ~80%
  reduction of Aβ42 level in the hippocampus compared to vehicle: ~90%
